Common to all, as to format: biochemical
One assay has as its target T1, BMX (Homo sapiens, UniProt P51813).
T1 sequence (P51813 1-675): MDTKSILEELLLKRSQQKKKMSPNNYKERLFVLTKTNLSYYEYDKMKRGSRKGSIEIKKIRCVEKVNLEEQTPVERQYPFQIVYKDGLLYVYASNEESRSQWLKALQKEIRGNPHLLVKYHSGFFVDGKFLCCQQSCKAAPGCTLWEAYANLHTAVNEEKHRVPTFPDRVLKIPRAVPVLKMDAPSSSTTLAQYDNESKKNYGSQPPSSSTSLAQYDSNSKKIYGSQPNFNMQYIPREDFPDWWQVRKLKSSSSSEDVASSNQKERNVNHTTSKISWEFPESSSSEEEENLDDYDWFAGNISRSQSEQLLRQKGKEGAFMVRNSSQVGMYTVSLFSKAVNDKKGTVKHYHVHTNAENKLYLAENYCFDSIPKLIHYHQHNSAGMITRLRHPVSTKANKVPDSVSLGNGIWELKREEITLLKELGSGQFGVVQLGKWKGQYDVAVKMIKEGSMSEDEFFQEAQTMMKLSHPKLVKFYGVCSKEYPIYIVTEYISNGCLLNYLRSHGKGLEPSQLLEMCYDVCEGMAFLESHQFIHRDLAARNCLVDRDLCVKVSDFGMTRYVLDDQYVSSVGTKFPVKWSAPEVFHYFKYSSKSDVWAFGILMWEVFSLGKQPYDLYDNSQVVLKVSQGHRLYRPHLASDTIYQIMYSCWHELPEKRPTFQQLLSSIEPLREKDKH
The assay is described as follows: BMX kinase inhibition.

A further assay addresses EGFR (Homo sapiens, UniProt P00533). The assay is described as follows: EGFR kinase inhibition.
A further assay addresses RET (Homo sapiens, UniProt P07949). The assay is described as follows: RET kinase inhibition.
Another assay has as its target T2, Tec (Homo sapiens, UniProt P42680).
T2 sequence (P42680 1-631): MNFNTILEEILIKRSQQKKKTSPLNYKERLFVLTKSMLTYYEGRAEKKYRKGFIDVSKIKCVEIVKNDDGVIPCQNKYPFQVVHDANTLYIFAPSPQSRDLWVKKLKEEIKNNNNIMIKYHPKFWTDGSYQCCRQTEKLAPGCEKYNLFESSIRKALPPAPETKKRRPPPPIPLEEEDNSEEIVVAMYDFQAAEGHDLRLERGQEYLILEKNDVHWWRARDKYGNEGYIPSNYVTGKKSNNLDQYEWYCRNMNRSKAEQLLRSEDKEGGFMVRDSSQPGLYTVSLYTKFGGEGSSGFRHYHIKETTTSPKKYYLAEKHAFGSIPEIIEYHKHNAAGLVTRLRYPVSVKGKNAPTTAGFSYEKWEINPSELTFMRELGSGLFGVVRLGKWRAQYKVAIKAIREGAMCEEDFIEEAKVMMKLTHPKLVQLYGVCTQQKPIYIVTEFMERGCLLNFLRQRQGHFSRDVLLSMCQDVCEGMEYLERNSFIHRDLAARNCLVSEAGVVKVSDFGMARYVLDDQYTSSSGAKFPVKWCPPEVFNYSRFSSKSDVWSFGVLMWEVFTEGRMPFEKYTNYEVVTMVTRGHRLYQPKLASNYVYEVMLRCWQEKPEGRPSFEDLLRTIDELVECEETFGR
The assay is described as follows: Tec kinase inhibition. The protocol:
(§1) Btk kinase activity was determined using a time-resolved fluorescence resonance energy transfer (TR-FRET) methodology. Measurements were performed in a reaction volume of 50 μL using 96-well assay plates. […] The reaction was quenched by the addition of 1.2 equivalents of EDTA (relative to divalent cation) in 25 μL of 1× Lance buffer (Perkin-Elmer). Streptavidin-APC (Perkin-Elmer) and Eu-labeled p-Tyr100 antibody (Perkin-Elmer) in 1× Lance buffer were added in a 25 μL volume to give final concentrations of 100 nM and 2.5 nM, respectively, and the mixture was allowed to incubate for one hour. The TR-FRET signal was measured on a multimode plate reader with an excitation wavelength (λEx) of 330 nm and detection wavelengths (λEm) of 615 and 665 nm. Activity was determined by the ratio of the fluorescence at 665 nm to that at 615 nm. For each compound, enzyme activity was measured at various concentrations of compound. Negative control reactions were performed in the absence of inhibitor in replicates of six, and two no-enzyme controls were used to determine baseline fluorescence levels Inhibition constants, Ki(app), were obtained using the program BatchKi (Kuzmic et al. (2000), Anal. Biochem. 286:45-50). IC50s were obtained according to the equation: IC50={Ki(app)/(1+[ATP]/Km^ATP)}+[E]total/2; For all kinases, [ATP]=Km^ATP, [Btk]total=0.5 nM and [Lck]total=6 nM.

A further assay addresses Lck (Homo sapiens, UniProt P06239). The experiment in a line: Lck kinase inhibition. The protocol: as §1
The target in another assay is Lyn (Homo sapiens, UniProt P07948). The experiment in a line: Lyn kinase inhibition.
For another assay, the target named is T3, Btk (Homo sapiens, UniProt Q06187).
T3 construct: purified from insect cells as a full-length construct containing a N-terminal 6×-His tag; 6xHis (N); host or cells: insect cells (baculovirus Sf21 in Method B)
The assay is described as follows: Btk in vitro inhibitory activity (one of Methods A, B, C). To be noted: determined in one of three in vitro assays (Examples 125-127). The protocol:
The Btk IC50s of compounds disclosed herein was determined in one of the three in vitro assays described in Examples 125-127.
as §1
Kinase activity is measured in vitro using electrophoretic mobility shift assay. The kinase reactions are assembled in a total volume of 25 μL in 384 well plates. […] The reaction is incubated for one hour and is quenched by the addition of 45 μL of termination buffer (100 mM HEPES, pH7.5, 0.01% Triton X-100, 30 mM EDTA). The terminated reactions are analyzed using 12 channel LabChip® 3000 microfluidic detection instrument (Caliper Life Sciences). The enzymatic phosphorylation of the peptide results in a change in net charge, enabling electrophoretic separation of product from substrate peptide. As substrate and product peptides are separated, two peaks of fluorescence are observed. Change in the relative fluorescence intensity of the substrate and product peaks is the parameter measured, reflecting enzyme activity. In the presence of an inhibitor, the ratio between product and substrate is altered: the signal of the product decreases, while the signal of the substrate increases.
Activity in each sample is determined as the product to sum ratio (PSR): P/(S+P), where P is the peak height of the product peptide and S is the peak height of the substrate peptide. For each compound, enzyme activity is measured at various concentrations (12 concentrations of compound spaced by 3× dilution intervals). Negative control samples (0%-inhibition in the absence of inhibitor) and positive control samples (100%-inhibition, in the presence of 20 mM EDTA) are assembled in replicates of four and are used to calculate %-inhibition values for each inhibitor at each concentration. Percent inhibition (Pinh) is determined using following equation: Pinh=(PSR0%−PSRinh)/(PSR0%−PSR100%)*100, where PSRinh is the product sum ratio in the presence of inhibitor, PSR0% is the average product sum ration in the absence of inhibitor and PSR100% is the average product sum ratio in 100%-inhibition control samples;
The IC50 values of inhibitors are determined by 4 parameter sigmoidal dose-response model fitting of the inhibition curves (Pinh versus inhibitor concentration) using XLfit 4 software.
Human Btk kinase (Genbank accession # NP_000052) was purified from insect cells as a full-length construct containing a N-terminal 6×-His tag. Btk kinase activity was determined using a radiometric filter binding assay. Measurements are performed in a low reaction volume 384-well assay plates. […]

A further assay addresses BLK (Homo sapiens, UniProt P51451). The experiment in a line: BLK kinase inhibition. The protocol: as §1
Another assay addresses CSK (Homo sapiens, UniProt P41240). The experiment in a line: CSK kinase inhibition.
Another assay has as its target C-src (Homo sapiens, UniProt P12931). The assay is described as follows: C-src kinase inhibition. The method, then:
as §1

These results are taken from US9546172B2, “Pyrazolo[3,4-d]pyrimidine and pyrazolo[2,3-d]pyrimidine compounds as kinase inhibitors” (Pharmacyclics LLC, priority 2011, dated 2017).

SMILES strings stand for the structures.

T3 sequence (Q06187 whole entry): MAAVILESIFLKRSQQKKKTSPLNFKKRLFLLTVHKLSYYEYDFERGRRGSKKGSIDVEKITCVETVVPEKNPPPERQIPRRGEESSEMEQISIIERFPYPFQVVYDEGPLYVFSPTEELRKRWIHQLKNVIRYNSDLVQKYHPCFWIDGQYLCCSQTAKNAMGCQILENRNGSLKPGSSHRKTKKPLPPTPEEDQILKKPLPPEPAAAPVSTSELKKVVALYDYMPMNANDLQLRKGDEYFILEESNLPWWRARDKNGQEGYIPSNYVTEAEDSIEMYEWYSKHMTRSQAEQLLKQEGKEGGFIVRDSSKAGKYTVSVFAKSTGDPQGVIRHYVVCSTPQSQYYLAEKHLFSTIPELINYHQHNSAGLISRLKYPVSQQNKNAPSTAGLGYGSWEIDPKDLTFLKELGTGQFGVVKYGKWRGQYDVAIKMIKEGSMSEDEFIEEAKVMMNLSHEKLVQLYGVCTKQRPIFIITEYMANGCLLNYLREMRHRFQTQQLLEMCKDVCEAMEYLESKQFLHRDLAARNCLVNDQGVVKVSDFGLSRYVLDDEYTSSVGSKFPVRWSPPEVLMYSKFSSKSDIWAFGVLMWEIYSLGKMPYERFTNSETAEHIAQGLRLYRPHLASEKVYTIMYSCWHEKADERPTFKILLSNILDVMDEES
Sequence of Lyn (P07948 whole entry): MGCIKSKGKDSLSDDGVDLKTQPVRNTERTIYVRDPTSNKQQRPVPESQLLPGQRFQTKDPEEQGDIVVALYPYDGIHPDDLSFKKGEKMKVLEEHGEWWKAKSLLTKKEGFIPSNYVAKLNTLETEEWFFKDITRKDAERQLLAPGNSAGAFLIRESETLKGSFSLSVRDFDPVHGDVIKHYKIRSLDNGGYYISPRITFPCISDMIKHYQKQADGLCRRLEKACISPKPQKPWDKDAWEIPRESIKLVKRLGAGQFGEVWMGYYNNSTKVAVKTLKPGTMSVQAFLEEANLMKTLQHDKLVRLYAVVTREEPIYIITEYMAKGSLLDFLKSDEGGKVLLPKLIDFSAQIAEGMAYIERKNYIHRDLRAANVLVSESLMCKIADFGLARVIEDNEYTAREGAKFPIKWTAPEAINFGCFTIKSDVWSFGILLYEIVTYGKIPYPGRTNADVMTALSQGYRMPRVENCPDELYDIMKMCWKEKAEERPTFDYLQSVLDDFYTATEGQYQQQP
Sequence of EGFR (P00533 25-1210): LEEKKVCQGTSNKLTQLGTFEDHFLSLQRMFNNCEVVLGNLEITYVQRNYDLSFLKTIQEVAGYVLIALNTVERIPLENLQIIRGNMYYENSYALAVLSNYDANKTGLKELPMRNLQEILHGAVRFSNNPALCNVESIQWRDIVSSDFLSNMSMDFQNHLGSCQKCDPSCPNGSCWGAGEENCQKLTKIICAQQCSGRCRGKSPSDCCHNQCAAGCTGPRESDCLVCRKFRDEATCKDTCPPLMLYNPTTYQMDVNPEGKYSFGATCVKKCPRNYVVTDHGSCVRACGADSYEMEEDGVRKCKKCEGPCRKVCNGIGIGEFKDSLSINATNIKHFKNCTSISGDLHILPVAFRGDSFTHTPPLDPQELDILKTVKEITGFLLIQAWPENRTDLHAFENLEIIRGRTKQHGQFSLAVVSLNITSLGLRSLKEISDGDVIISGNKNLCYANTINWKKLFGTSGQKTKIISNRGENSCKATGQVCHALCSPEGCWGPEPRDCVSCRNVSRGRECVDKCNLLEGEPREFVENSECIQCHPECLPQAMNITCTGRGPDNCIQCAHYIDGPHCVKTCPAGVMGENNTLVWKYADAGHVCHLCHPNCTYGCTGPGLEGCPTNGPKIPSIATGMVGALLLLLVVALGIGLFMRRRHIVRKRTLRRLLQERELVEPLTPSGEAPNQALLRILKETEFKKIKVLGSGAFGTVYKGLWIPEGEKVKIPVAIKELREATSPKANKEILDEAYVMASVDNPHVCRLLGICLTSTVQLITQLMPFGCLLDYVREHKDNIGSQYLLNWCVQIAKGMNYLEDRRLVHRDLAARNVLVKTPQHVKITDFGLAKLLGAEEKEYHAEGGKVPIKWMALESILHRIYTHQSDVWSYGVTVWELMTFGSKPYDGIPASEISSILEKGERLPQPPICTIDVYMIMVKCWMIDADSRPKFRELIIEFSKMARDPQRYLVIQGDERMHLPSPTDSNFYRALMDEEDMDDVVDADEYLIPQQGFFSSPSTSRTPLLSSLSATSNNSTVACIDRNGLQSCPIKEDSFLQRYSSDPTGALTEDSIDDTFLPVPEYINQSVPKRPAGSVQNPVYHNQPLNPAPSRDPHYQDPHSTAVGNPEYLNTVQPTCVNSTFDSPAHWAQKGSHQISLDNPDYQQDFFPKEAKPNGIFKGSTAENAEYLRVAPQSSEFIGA
Sequence of C-src (P12931 whole entry): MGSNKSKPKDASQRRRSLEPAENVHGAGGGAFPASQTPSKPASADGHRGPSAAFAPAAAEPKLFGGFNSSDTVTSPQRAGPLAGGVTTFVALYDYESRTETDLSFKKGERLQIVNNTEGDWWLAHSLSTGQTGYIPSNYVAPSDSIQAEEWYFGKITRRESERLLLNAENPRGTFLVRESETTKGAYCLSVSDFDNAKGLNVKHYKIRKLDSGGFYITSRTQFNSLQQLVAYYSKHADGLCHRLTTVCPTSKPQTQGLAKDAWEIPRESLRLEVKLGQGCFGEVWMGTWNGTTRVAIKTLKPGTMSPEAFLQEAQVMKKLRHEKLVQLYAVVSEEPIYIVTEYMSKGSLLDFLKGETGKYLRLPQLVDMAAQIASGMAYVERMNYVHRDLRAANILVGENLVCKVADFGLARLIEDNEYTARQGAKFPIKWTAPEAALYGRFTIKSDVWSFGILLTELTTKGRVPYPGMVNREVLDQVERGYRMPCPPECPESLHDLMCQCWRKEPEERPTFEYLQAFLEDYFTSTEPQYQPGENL
Sequence of BLK (P51451 whole entry): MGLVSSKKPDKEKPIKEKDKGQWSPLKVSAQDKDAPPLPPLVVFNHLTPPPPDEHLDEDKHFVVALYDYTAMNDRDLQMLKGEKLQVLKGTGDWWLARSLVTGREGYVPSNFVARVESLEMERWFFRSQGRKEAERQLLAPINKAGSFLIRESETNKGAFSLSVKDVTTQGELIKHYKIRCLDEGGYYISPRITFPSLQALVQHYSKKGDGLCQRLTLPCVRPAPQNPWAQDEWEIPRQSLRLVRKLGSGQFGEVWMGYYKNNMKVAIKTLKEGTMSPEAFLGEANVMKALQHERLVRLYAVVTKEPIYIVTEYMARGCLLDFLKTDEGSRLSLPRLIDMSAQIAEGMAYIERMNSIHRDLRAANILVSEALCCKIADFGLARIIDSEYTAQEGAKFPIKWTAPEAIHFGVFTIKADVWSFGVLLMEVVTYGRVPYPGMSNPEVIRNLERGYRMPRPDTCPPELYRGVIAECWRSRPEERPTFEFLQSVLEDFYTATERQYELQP
Sequence of Lck (P06239 whole entry): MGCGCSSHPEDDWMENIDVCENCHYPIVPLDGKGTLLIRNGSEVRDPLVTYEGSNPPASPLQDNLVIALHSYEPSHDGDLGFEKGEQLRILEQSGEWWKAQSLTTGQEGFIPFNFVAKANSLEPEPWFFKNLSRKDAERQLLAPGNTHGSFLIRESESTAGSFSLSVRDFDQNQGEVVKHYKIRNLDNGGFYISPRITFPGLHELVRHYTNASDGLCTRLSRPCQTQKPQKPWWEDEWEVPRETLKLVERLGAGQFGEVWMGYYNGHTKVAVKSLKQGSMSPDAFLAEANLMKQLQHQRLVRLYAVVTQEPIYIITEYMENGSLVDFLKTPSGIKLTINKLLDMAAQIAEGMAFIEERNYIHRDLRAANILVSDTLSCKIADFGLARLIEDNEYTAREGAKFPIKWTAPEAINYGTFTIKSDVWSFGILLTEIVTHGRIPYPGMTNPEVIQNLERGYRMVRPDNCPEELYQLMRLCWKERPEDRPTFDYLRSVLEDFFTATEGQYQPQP
Sequence of CSK (P41240 whole entry): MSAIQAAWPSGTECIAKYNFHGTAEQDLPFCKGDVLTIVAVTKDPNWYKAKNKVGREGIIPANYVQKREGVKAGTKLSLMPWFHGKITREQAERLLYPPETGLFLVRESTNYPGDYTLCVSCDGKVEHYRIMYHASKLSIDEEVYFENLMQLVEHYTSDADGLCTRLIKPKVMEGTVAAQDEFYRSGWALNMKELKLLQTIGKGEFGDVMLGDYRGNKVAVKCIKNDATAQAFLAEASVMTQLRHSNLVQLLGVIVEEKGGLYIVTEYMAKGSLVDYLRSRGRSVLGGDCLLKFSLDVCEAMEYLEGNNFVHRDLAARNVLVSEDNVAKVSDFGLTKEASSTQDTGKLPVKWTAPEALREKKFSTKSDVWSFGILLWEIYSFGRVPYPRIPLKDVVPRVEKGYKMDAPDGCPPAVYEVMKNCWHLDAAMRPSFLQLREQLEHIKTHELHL

As to `CN(C)C/C=C/C(=O)N1CC[C@@H](n2nc(-c3ccc(Cl)cc3)c3c(N)ncnc32)C1` [Example 1, (E)-1-((R)-3-(4-amino-3-(4-chlorophenyl)-1H-pyrazolo[3,4-d]pyrimidin-1-yl)pyrrolidin-1-yl)-4-(dimethylamino)but-2-en-1-one], the IC50 at BMX is below 100 nM; on EGFR, 100 to 1000 nM; on RET, 100 to 1000 nM; on Tec, below 100 nM; against Lck, 100 to 1000 nM; against Lyn it was 100 to 1000 nM. The half-inhibitory concentration (IC50) at Btk was below 100 nM; at BLK it was below 100 nM; against CSK, 100 to 1000 nM; against C-src, below 100 nM.

`COCCOc1ccc(-c2nn([C@@H]3CCN(C(=O)/C=C/CN(C)C)C3)c3ncnc(N)c23)cc1` [Example 2, (E)-1-((R)-3-(4-amino-3-(4-(2-methoxyethoxy)phenyl)-1H-pyrazolo[3,4-d]pyrimidin-1-yl)pyrrolidin-1-yl)-4-(dimethylamino)but-2-en-1-one]: the half-maximal inhibitory concentration (IC50) was below 100 nM against BMX; above 1000 nM at RET; 100 to 1000 nM against Tec; above 1000 nM on Lck; above 1000 nM on Lyn; below 100 nM at Btk. The IC50 was below 100 nM at BLK, above 1000 nM against CSK and above 1000 nM against C-src.

Take `CN(C)C/C=C/C(=O)N1CC[C@@H](n2nc(-c3ccc(F)cc3)c3c(N)ncnc32)C1` [Example 3, (R,E)-1-(3-(4-amino-3-(4-fluorophenyl)-1H-pyrazolo[3,4-d]pyrimidin-1-yl)pyrrolidin-1-yl)-4-(dimethylamino)but-2-en-1-one]: the IC50 against BMX is below 100 nM; at EGFR, above 1000 nM; on RET, above 1000 nM; on Tec, below 100 nM; against Lck it was above 1000 nM; on Lyn it was above 1000 nM. The IC50 is below 100 nM against Btk, 100 to 1000 nM against BLK, above 1000 nM against CSK and 100 to 1000 nM against C-src.

Regarding `Cc1ccc(-c2nn([C@@H]3CCN(C(=O)/C=C/CN(C)C)C3)c3ncnc(N)c23)cc1` [Example 4, (R,E)-1-(3-(4-amino-3-p-tolyl-1H-pyrazolo[3,4-d]pyrimidin-1-yl)pyrrolidin-1-yl)-4-(dimethylamino)but-2-en-1-one], the 50% inhibitory concentration (IC50) against BMX is below 100 nM; at EGFR it was 100 to 1000 nM; against RET, 100 to 1000 nM; against Tec it was below 100 nM; on Lck, 100 to 1000 nM; at Lyn, 100 to 1000 nM. Moreover, the half-maximal inhibitory concentration (IC50) on Btk is below 100 nM; on BLK, below 100 nM; against CSK it was above 1000 nM; at C-src, 100 to 1000 nM.

With `CN(C)C/C=C/C(=O)Nc1ccc(-n2nc(-c3ccc(Cl)cc3)c3c(N)ncnc32)cc1` [Example 17, (E)-N-(4-(4-amino-3-(4-chlorophenyl)-1H-pyrazolo[3,4-d]pyrimidin-1-yl)phenyl)-4-(dimethylamino)but-2-enamide], the IC50 against BMX, at EGFR, against Tec, against Lck, on Lyn and on Btk was below 100 nM each time. Further, the IC50 against BLK was below 100 nM; on CSK it was 100 to 1000 nM; at C-src, below 100 nM.

In the case of `COc1cc(-c2nn(-c3cccc(N(C)C(=O)/C=C/CN(C)C4CC4)c3)c3ncnc(N)c23)ccc1C` [Example 24, (E)-N-(3-(4-amino-3-(3-methoxy-4-methylphenyl)-1H-pyrazolo[3,4-d]pyrimidin-1-yl)phenyl)-4-(cyclopropyl(methyl)amino)-N-methylbut-2-enamide], the IC50 is below 100 nM against BMX; above 1000 nM against RET; below 100 nM at Tec; 100 to 1000 nM on Lck; below 100 nM on Lyn; below 100 nM at Btk. The 50% inhibitory concentration (IC50) is below 100 nM against BLK, above 1000 nM against CSK and 100 to 1000 nM against C-src.

Take `CN(C(=O)/C=C/CN(C)C1CC1)c1cccc(-n2nc(-c3ccc(Cl)cc3)c3c(N)ncnc32)c1` [Example 25, (E)-N-(3-(4-amino-3-(4-chlorophenyl)-1H-pyrazolo[3,4-d]pyrimidin-1-yl)phenyl)-4-(cyclopropyl(methyl)amino)-N-methylbut-2-enamide]: the IC50 was below 100 nM against BMX; below 100 nM at EGFR; below 100 nM against Tec; above 1000 nM against Lck; above 1000 nM at Lyn; below 100 nM at Btk. In addition, the 50% inhibitory concentration (IC50) was 100 to 1000 nM against BLK, above 1000 nM against CSK and 100 to 1000 nM on C-src.
